# In ChEMBL document CHEMBL5113471 (Eur J Med Chem, 2022):
# Active and inactive are the calls of the source. The calls are words filed in the database; no cut-off is given here.
# Key:
# [1] = target: Poly [ADP-ribose] polymerase 1 (Homo sapiens, UniProt P09874); assay: Inhibition of human recombinant PARP1 in presence of NAD+ by ELISA
# [2] = system: MDA-MB-436; assay: Induction of DNA double strand breaks in human MDA-MB-436 cells assessed as increase in Chk1 phosphorylation at Ser345 residue incubated for 48 hrs by western blot analysis; format: functional, cell-based; details: dose 0.1-1 µM
# [3] = system: CAPAN-1; assay: Induction of apoptosis in human CAPAN-1 cells assessed as late apoptotic cells at 5 uM incubated for 96 hrs by AnnexinV-FITC/PI staining based flow cytometry (reference value: 8.99%); format: functional
# [4] = Cytotoxicity against human WI-38 cells expressing wild type BRCA1 assessed as inhibition of cell proliferation incubated for 7 days by SRB assay; format: toxicity, cell-based
# [5] = Antiproliferative activity against BRCA1-deficient human UWB1289 cells assessed as inhibition of cell proliferation incubated for 7 days by SRB assay; format: functional, cell-based; details: UWB1289, 168 h
# [6] = system: CAPAN-1; assay: Induction of apoptosis in human CAPAN-1 cells assessed as early apoptotic cells at 1 uM incubated for 96 hrs by AnnexinV-FITC/PI staining based flow cytometry (reference value: 5.08%); format: functional
# [7] = system: CAPAN-1; assay: Induction of apoptosis in human CAPAN-1 cells assessed as late apoptotic cells at 1 uM incubated for 96 hrs by AnnexinV-FITC/PI staining based flow cytometry (reference value: 8.99%); format: functional
# [8] = system: MDA-MB-436; assay: Induction of DNA double strand breaks in human MDA-MB-436 cells assessed as increase in gamma-H2AX level incubated for 48 hrs by western blot analysis; format: functional, cell-based; details: dose 0.1-1 µM, DDE = dose-dependent effect
# [9] = system: CAPAN-1; assay: Induction of DNA double strand breaks in human CAPAN-1 cells assessed as increase in Chk1 phosphorylation at Ser345 residue incubated for 48 hrs by western blot analysis; format: functional, cell-based; details: dose 0.1-1 µM
# [10] = system: CAPAN-1; assay: Induction of apoptosis in human CAPAN-1 cells assessed as early apoptotic cells at 5 uM incubated for 96 hrs by AnnexinV-FITC/PI staining based flow cytometry (reference value: 5.08%); format: functional
# [11] = system: CAPAN-1; assay: Induction of cell cycle arrest at G2/M phase in human CAPAN-1 cells incubated for 48 hrs by propidium iodide staining based flow cytometry; format: functional; details: dose 1-10 µM, DDE = dose-dependent effect
# [12] = system: MDA-MB-436; assay: Antiproliferative activity against BRCA1-deficient human MDA-MB-436 cells assessed as inhibition of cell proliferation incubated for 7 days by CCK-8 assay; format: functional, cell-based; details: MDA-MB-436, 168 h
# [13] = Antiproliferative activity against human UWB1289 cells with restoration of BRCA1 expression assessed as inhibition of cell proliferation incubated for 7 days by SRB assay; format: functional, cell-based; details: UWB1289, 168 h
# [14] = system: CAPAN-1; assay: Induction of DNA double strand breaks in human CAPAN-1 cells assessed as increase in gamma-H2AX level incubated for 48 hrs by western blot analysis; format: functional, cell-based; details: dose 0.1-1 µM, DDE = dose-dependent effect
# [15] = system: CAPAN-1; assay: Antiproliferative activity against BRCA2-deficient human CAPAN-1 cells assessed as inhibition of cell proliferation incubated for 7 days by CellTiter-Glo assay; format: functional, cell-based; details: CAPAN-1, 168 h
# [16] = Cytotoxicity against human IMR-90 cells expressing wild type BRCA-1 assessed as inhibition of cell proliferation incubated for 7 days by SRB assay; format: toxicity, cell-based
# [17] = system: CAPAN-1; assay: Induction of DNA double strand breaks in human CAPAN-1 cells assessed as increase in gamma-H2AX level at 10 uM incubated for 48 hrs by immunofluorescence-based laser confocal microscopy; format: functional, cell-based
# [18] = system: CAPAN-1; assay: Induction of apoptosis in human CAPAN-1 cells assessed as late apoptotic cells at 10 uM incubated for 96 hrs by AnnexinV-FITC/PI staining based flow cytometry (reference value: 8.99%); format: functional
# [19] = system: CAPAN-1; assay: Induction of apoptosis in human CAPAN-1 cells assessed as early apoptotic cells at 10 uM incubated for 96 hrs by AnnexinV-FITC/PI staining based flow cytometry (reference value: 5.08%); format: functional
# Poly [ADP-ribose] polymerase 1, sequence (P09874 whole entry): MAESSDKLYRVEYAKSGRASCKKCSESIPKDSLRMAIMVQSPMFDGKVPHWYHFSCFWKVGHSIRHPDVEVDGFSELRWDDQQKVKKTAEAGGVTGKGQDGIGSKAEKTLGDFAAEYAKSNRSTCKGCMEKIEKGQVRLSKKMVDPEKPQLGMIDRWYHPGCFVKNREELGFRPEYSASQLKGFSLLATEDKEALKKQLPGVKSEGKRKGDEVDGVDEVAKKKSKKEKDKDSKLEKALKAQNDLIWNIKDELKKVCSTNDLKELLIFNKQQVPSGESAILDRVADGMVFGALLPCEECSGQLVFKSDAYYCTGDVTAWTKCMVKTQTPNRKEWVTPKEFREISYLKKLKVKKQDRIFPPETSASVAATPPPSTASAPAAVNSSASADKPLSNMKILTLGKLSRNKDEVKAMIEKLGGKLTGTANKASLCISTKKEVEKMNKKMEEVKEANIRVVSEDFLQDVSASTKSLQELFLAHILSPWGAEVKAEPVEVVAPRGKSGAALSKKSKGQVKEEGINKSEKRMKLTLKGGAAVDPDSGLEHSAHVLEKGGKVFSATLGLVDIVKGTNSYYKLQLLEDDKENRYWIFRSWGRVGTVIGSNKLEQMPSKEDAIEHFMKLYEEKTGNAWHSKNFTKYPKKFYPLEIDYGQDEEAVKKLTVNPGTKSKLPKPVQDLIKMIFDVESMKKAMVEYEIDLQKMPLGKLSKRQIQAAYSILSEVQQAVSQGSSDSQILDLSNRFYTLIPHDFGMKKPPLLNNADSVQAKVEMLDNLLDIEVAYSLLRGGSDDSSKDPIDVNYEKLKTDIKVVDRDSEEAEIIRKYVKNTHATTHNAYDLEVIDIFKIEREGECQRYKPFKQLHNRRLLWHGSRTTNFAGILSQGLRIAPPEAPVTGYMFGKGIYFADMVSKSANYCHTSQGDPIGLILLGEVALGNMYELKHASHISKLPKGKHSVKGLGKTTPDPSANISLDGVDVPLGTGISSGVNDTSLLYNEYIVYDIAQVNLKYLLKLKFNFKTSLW
smiles,measurement,setting,value
C[C@]12CCC=C(CO)C1=CC1C(C2)OC(=O)C1CN1CCN(C(=O)c2cc(Cc3n[nH]c(=O)c4ccccc34)ccc2F)CC1 (some centres not stated),IC50,[1],94.9 nM
C[C@H]1CCC[C@]2(C)CC3OC(=O)C(CNCCCCCCCC(=O)N4CCN(C(=O)c5cc(Cc6n[nH]c(=O)c7ccccc67)ccc5F)CC4)C3C=C12 (some centres not stated),Activity,[2],Active
same,Activity,[3],13.9%
same,IC50 at 7 days,[4],11.8 µM
same,IC50,[5],270 nM
same,Activity,[6],5.52%
same,Activity,[7],14.4%
same,Activity,[8],Dde
same,Activity,[9],Active
same,Activity,[10],7.21%
same,Activity,[11],Dde
same,IC50,[12],190 nM
same,IC50,[1],2.99 nM
same,IC50,[13],1430 nM
same,Activity,[14],Dde
same,IC50,[15],870 nM
same,IC50 at 7 days,[16],11.7 µM
same,Activity,[17],Active
same,Activity,[18],58.2%
same,Activity,[19],35.4%
C=C1C(=O)OC2C[C@@]3(C)CCC=C(COC(=O)c4cc(Cc5n[nH]c(=O)c6ccccc56)ccc4F)C3=CC12 (some centres not stated),IC50,[1],2600 nM
C[C@H]1CCC[C@]2(C)CC3OC(=O)C(CNCCOCCOCCOCC(=O)N4CCN(C(=O)c5cc(Cc6n[nH]c(=O)c7ccccc67)ccc5F)CC4)C3C=C12 (some centres not stated),IC50,[1],73.4 nM
C=C1C(=O)OC2C[C@@]3(C)CCC=C(COC(=O)CC4CCCN(C(=O)c5cc(Cc6n[nH]c(=O)c7ccccc67)ccc5F)C4)C3=CC12 (some centres not stated),IC50,[1],65.2 nM
C=C1C(=O)OC2C[C@@]3(C)CCC=C(COC(=O)CC4CCN(C(=O)c5cc(Cc6n[nH]c(=O)c7ccccc67)ccc5F)CC4)C3=CC12 (some centres not stated),IC50,[1],69.9 nM
C[C@H]1CCC[C@]2(C)CC3OC(=O)C(CN(C)CCC(=O)N4CCN(C(=O)c5cc(Cc6n[nH]c(=O)c7ccccc67)ccc5F)CC4)C3C=C12 (some centres not stated),IC50,[1],43.9 nM
C=C1C(=O)OC2C[C@@]3(C)CCC=C(COC(=O)COCCOCCNC(=O)c4cc(Cc5n[nH]c(=O)c6ccccc56)ccc4F)C3=CC12 (some centres not stated),IC50,[1],38.6 nM
C[C@]12CCC=C(CO)C1=CC1C(C2)OC(=O)C1CNCCCCCCCC(=O)N1CCN(C(=O)c2cc(Cc3n[nH]c(=O)c4ccccc34)ccc2F)CC1 (some centres not stated),IC50,[1],422 nM
C[C@H]1CCC[C@]2(C)CC3OC(=O)C(CNCCC(=O)N4CCN(C(=O)c5cc(Cc6n[nH]c(=O)c7ccccc67)ccc5F)CC4)C3C=C12 (some centres not stated),IC50,[1],15.5 nM
C[C@H]1CCC[C@]2(C)CC3OC(=O)C(CN(C)CC(=O)N4CCN(C(=O)c5cc(Cc6n[nH]c(=O)c7ccccc67)ccc5F)CC4)C3C=C12 (some centres not stated),IC50,[1],20.3 nM
C=C1C(=O)OC2C[C@@]3(C)CCC=C(COC(=O)CCC4CCN(C(=O)c5cc(Cc6n[nH]c(=O)c7ccccc67)ccc5F)CC4)C3=CC12 (some centres not stated),IC50,[1],79.2 nM
O=C(c1cc(Cc2n[nH]c(=O)c3ccccc23)ccc1F)N1CCN(C(=O)C2CC2)CC1 [OLAPARIB],Activity,[3],12.9%
same,IC50,[5],660 nM
same,Activity,[6],4.92%
same,Activity,[7],10.1%
same,Activity,[8],Dde
same,Activity,[10],5.74%
same,IC50,[12],100 nM
same,IC50,[13],4650 nM
same,Activity,[14],Dde
same,IC50,[15],530 nM
same,Activity,[17],Active
same,Activity,[18],19%
same,Activity,[19],9.82%
C[C@]12CCC=C(CO)C1=CC1C(C2)OC(=O)C1CNCCOCCOCC(=O)N1CCN(C(=O)c2cc(Cc3n[nH]c(=O)c4ccccc34)ccc2F)CC1 (some centres not stated),Activity,[2],Active
same,Activity,[3],16.5%
same,IC50 at 7 days,[4],12 µM
same,IC50,[5],410 nM
same,Activity,[6],6.64%
same,Activity,[7],12.6%
same,Activity,[8],Dde
same,Activity,[9],Active
same,Activity,[10],9.68%
same,Activity,[11],Dde
same,IC50,[12],190 nM
same,IC50,[1],5.91 nM
same,IC50,[13],2570 nM
same,Activity,[14],Dde
same,IC50,[15],750 nM
same,IC50 at 7 days,[16],10.1 µM
same,Activity,[17],Active
same,Activity,[18],33.5%
same,Activity,[19],12.5%
C=C1C(=O)OC2C[C@@]3(C)CCC=C(COC(=O)C4CN(C(=O)c5cc(Cc6n[nH]c(=O)c7ccccc67)ccc5F)C4)C3=CC12 (some centres not stated),IC50,[1],279 nM
C=C1C(=O)OC2C[C@@]3(C)CCC=C(COC(=O)CCCC4CCN(C(=O)c5cc(Cc6n[nH]c(=O)c7ccccc67)ccc5F)CC4)C3=CC12 (some centres not stated),IC50,[1],129 nM
C[C@H]1CCC[C@]2(C)CC3OC(=O)C(CNOCC(=O)N4CCN(C(=O)c5cc(Cc6n[nH]c(=O)c7ccccc67)ccc5F)CC4)C3C=C12 (some centres not stated),IC50,[1],19.7 nM
C[C@H]1CCC[C@]2(C)CC3OC(=O)C(CNCC(=O)N4CCN(C(=O)c5cc(Cc6n[nH]c(=O)c7ccccc67)ccc5F)CC4)C3C=C12 (some centres not stated),IC50,[1],25.5 nM
C[C@H]1CCC[C@]2(C)CC3OC(=O)C(CN(C)CCCC(=O)N4CCN(C(=O)c5cc(Cc6n[nH]c(=O)c7ccccc67)ccc5F)CC4)C3C=C12 (some centres not stated),IC50,[1],43 nM
C[C@H]1CCC[C@]2(C)CC3OC(=O)C(CNCCCC(=O)N4CCN(C(=O)c5cc(Cc6n[nH]c(=O)c7ccccc67)ccc5F)CC4)C3C=C12 (some centres not stated),IC50,[5],1120 nM
same,IC50,[12],200 nM
same,IC50,[1],8.33 nM
same,IC50,[13],2250 nM
same,IC50,[15],990 nM
C[C@H]1CCC[C@]2(C)CC3OC(=O)C(CN4CCN(C(=O)c5cc(Cc6n[nH]c(=O)c7ccccc67)ccc5F)CC4)C3C=C12 (some centres not stated),IC50,[1],136 nM
C=C1C(=O)OC2C[C@@]3(C)CCC=C(COC(=O)CCN(C)C(=O)c4cc(Cc5n[nH]c(=O)c6ccccc56)ccc4F)C3=CC12 (some centres not stated),IC50,[5],900 nM
same,IC50,[12],2190 nM
same,IC50,[1],2.18 nM
same,IC50,[13],1210 nM
same,IC50,[15],1280 nM
C[C@]12CCC=C(C=O)C1=CC1C(C2)OC(=O)C1CNCCOCCOCC(=O)N1CCN(C(=O)c2cc(Cc3n[nH]c(=O)c4ccccc34)ccc2F)CC1 (some centres not stated),IC50,[1],88.4 nM
C=C1C(=O)OC2C[C@@]3(C)CCC=C(COC(=O)CCNC(=O)c4cc(Cc5n[nH]c(=O)c6ccccc56)ccc4F)C3=CC12 (some centres not stated),IC50,[1],134 nM
C=C1C(=O)O[C@@H]2C[C@@]3(C)CCC[C@H](C)C3=C[C@H]12 [HELENINE],IC50,[1],> 10000 nM
C=C1C(=O)OC2C[C@@]3(C)CCC=C(CN4CCN(C(=O)c5cc(Cc6n[nH]c(=O)c7ccccc67)ccc5F)CC4)C3=CC12 (some centres not stated),IC50,[1],170 nM
